From PubChem BioAssay (NCI)
Values joined by “and” are separate entries in the source; they are usually repeats but may differ in a detail not shown here. Equal values may be shown once.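 Protocol summary: plate cells (96-well), add compound at 5 concentrations, incubate 48 h, interpolate endpoints linearly. GI50: concentration for 50% inhibition of growth. TGI: total growth inhibition.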 Where a SMILES comes first, the peptide text is derived from it. Peptide text beside a SMILES is read from it. The star is where a group is joined. * marks the point of attachment. Palmitoyl = CCCCCCCCCCCCCCCC(=O)*; Boc = CC(C)(C)OC(=O)*

Legend:
Assay in all cases: inhibition of tumour cell growth, NCI panel, 48 h
NCI/ADR-RES ovarian = test system: NCI/ADR-RES ovarian
SF-539 CNS = test system: SF-539 CNS
A549 NSCLC = test system: A549 NSCLC
SF-295 CNS = test system: SF-295 CNS
786-0 renal = test system: 786-0 renal
SNB-75 CNS = test system: SNB-75 CNS
IGROV1 ovarian = test system: IGROV1 ovarian
M14 melanoma = test system: M14 melanoma
UACC-257 melanoma = test system: UACC-257 melanoma
SW-620 colon = test system: SW-620 colon

Work on `CC(=O)Oc1ccc2c(c1)c1c(OC(C)=O)c3ccccc3c(OC(C)=O)c1n2Cc1cccc(C)c1` yielded a TGI (NCI/ADR-RES ovarian) greater than 100 µM, a TGI (SF-539 CNS) of 79.3 µM and a TGI (A549 NSCLC) greater than 100 µM. The TGI (SF-295 CNS) was 72.3 µM, the TGI (786-0 renal) was greater than 100 µM and the TGI (SNB-75 CNS) was 41.6 µM. For the same molecule, the TGI (IGROV1 ovarian) was greater than 100 µM and the TGI (M14 melanoma) was greater than 100 µM.
For `N#Cc1nnc2c3c(-c4ccc(Cl)cc4)c(C#N)c(=O)[nH]c3nn2c1N`, the TGI (NCI/ADR-RES ovarian) was 54.9 µM, the TGI (SF-539 CNS) was 12.5 µM and the TGI (UACC-257 melanoma) was 38.5 µM. The TGI (A549 NSCLC) was greater than 59.9 µM, the TGI (SF-295 CNS) was 23.9 µM and the TGI (786-0 renal) was 18.2 µM. It also gave a TGI (SW-620 colon) of 32 µM, a TGI (IGROV1 ovarian) of 9.65 µM and a TGI (M14 melanoma) of 21.7 µM.
Molecule `Fc1nc(F)nc(-c2c3ccccc3c3n2CCS3)n1` has a TGI (SF-539 CNS) greater than 100 µM, a TGI (A549 NSCLC) greater than 100 µM and a TGI (SF-295 CNS) greater than 100 µM. For the same molecule, the TGI (786-0 renal) was greater than 100 µM, the TGI (SNB-75 CNS) was greater than 100 µM and the TGI (SW-620 colon) was greater than 100 µM. The TGI (IGROV1 ovarian) was greater than 100 µM and the TGI (M14 melanoma) was greater than 100 µM.
Molecule `CC(=O)c1nccc2c1c(C)nc1ccccc12` has a TGI (NCI/ADR-RES ovarian) greater than 100 µM, a TGI (SF-539 CNS) greater than 100 µM and a TGI (UACC-257 melanoma) greater than 100 µM. For the same molecule, the TGI (A549 NSCLC) was greater than 100 µM, the TGI (SF-295 CNS) was greater than 100 µM and the TGI (SNB-75 CNS) was greater than 100 µM. For the same molecule, the TGI (SW-620 colon) was greater than 100 µM, the TGI (IGROV1 ovarian) was greater than 100 µM and the TGI (M14 melanoma) was greater than 100 µM.
With `COc1ccc(CC2C(=O)NC(C)C(=O)N(C)C3Cc4ccc(cc4)Oc4cc(ccc4O)CC(C(=O)NC(C)C(=O)NC(C)C(=O)N2C)N(C)C3=O)cc1` (stereo not drawn) the GI50 (NCI/ADR-RES ovarian) was 15.2 µM, the TGI (NCI/ADR-RES ovarian) was 78.6 µM and the GI50 (SF-539 CNS) was less than 0.0001 µM. The TGI (SF-539 CNS) was 0.0219 µM and 0.0288 µM, the GI50 (UACC-257 melanoma) was less than 0.0001 µM and the TGI (A549 NSCLC) was 0.193 µM and 0.599 µM and 0.306 µM. For the same molecule, the GI50 (SNB-75 CNS) was less than 0.0001 µM, the TGI (SNB-75 CNS) was 0.0214 µM and the GI50 (SW-620 colon) was 0.000157 µM. The GI50 (IGROV1 ovarian) was less than 0.0001 µM, the TGI (IGROV1 ovarian) was 0.0203 µM and the GI50 (M14 melanoma) was 0.0107 µM. The TGI (M14 melanoma) was 0.518 µM and 0.36 µM.
For `COc1ccc(NC(=O)C2=C(SC)C(=O)N=C2N)cc1`, the TGI (NCI/ADR-RES ovarian) was greater than 100 µM, the TGI (UACC-257 melanoma) was greater than 100 µM and the TGI (SF-295 CNS) was greater than 100 µM. The TGI (786-0 renal) was greater than 100 µM, the TGI (SNB-75 CNS) was greater than 100 µM and the TGI (SW-620 colon) was greater than 100 µM. For the same molecule, the TGI (IGROV1 ovarian) was greater than 100 µM.
In the case of `O=C(CCN1CCCCC1CO)Nc1ccc2c(c1)C(=O)c1ccc(NC(=O)CCN3CCCCC3CO)cc1C2=O` (stereo not drawn), the TGI (SF-539 CNS) is reported as 16.1 µM, the TGI (UACC-257 melanoma) is reported as 91.3 µM and the TGI (A549 NSCLC) is reported as 82.4 µM. For the same molecule, the TGI (SF-295 CNS) was 62.6 µM, the TGI (786-0 renal) was 6.58 µM and the TGI (SW-620 colon) was 27 µM. It also gave a TGI (IGROV1 ovarian) of 23.1 µM and a TGI (M14 melanoma) of 22.4 µM.
In the case of `Cn1c(=O)c2[nH]c(N/N=C3/SCC(=O)N3Cc3ccccc3)nc2n(C)c1=O`, the TGI (NCI/ADR-RES ovarian) is reported as greater than 100 µM, the TGI (SF-539 CNS) is reported as greater than 100 µM and the TGI (UACC-257 melanoma) is reported as greater than 100 µM. It also gave a TGI (A549 NSCLC) greater than 100 µM, a TGI (SF-295 CNS) greater than 100 µM and a TGI (786-0 renal) of 88.4 µM. The TGI (IGROV1 ovarian) was greater than 100 µM and the TGI (M14 melanoma) was greater than 100 µM.
`O=C1O/C(=C\c2ccc(O)cc2)C(c2ccc(O)c(Cl)c2)=C1Br` was tested, and the TGI (NCI/ADR-RES ovarian) was 65.4 µM, the TGI (SF-539 CNS) was 29.1 µM and the TGI (UACC-257 melanoma) was 26.8 µM. The TGI (SF-295 CNS) was 28.9 µM, the TGI (786-0 renal) was 31.6 µM and the TGI (SW-620 colon) was 37.9 µM. For the same molecule, the TGI (IGROV1 ovarian) was 25.7 µM and the TGI (M14 melanoma) was 26.4 µM.
In the case of `Cc1cnc2[nH]c(-c3ccccc3)cc(=O)c2c1`, the TGI (NCI/ADR-RES ovarian) is reported as 0.0447 µM, the TGI (SF-539 CNS) is reported as 0.0671 µM and the TGI (A549 NSCLC) is reported as greater than 100 µM. The TGI (786-0 renal) was greater than 100 µM, the TGI (SNB-75 CNS) was 82.8 µM and the TGI (SW-620 colon) was greater than 100 µM. It also gave a TGI (IGROV1 ovarian) greater than 100 µM and a TGI (M14 melanoma) greater than 18 µM.
In the case of `CCCCCCCCCCCCCCCC(=O)NC(CCCCN)C(=O)NCC(=O)NC(Cc1ccccc1)C(=O)N1CCCC1C(=O)NC(CO)C(=O)NC(Cc1ccc(O)cc1)C(=O)NC(CCCCN)C(=O)NC(CC(C)C)C(=O)NC(CCCN=C(N)N)C(=O)N1CCCC1C(=O)NCC(N)=O` (stereo not drawn) (Palmitoyl-KGFPSYKLRPG-NH2; configuration not given here), the GI50 (NCI/ADR-RES ovarian) is reported as 20.7 µM, the TGI (NCI/ADR-RES ovarian) is reported as 42.9 µM and the GI50 (SF-539 CNS) is reported as 21.1 µM. The TGI (SF-539 CNS) was 48.1 µM, the GI50 (UACC-257 melanoma) was 21.8 µM and the TGI (UACC-257 melanoma) was 48 µM. It also gave a GI50 (A549 NSCLC) of 19.5 µM, a TGI (A549 NSCLC) of 44.4 µM and a GI50 (SF-295 CNS) of 27.1 µM. It also gave a TGI (SF-295 CNS) of 72.6 µM, a GI50 (SNB-75 CNS) of 22.7 µM and a TGI (SNB-75 CNS) of 49.6 µM. The GI50 (SW-620 colon) was 26 µM, the TGI (SW-620 colon) was 79.5 µM and the GI50 (IGROV1 ovarian) was 17.8 µM. It also gave a TGI (IGROV1 ovarian) of 44.3 µM, a GI50 (M14 melanoma) of 18.4 µM and a TGI (M14 melanoma) of 37.9 µM.
`C=C1C(=O)O[C@H]2C(=O)[C@H](C)CCC[C@@](C)(O)/C=C\C[C@@]3(C)O[C@@H]3C[C@@H]12` was tested, and the TGI (NCI/ADR-RES ovarian) was greater than 100 µM, the TGI (SF-539 CNS) was 36.9 µM and the TGI (UACC-257 melanoma) was 31 µM. For the same molecule, the TGI (A549 NSCLC) was 38.6 µM, the TGI (SF-295 CNS) was 17.5 µM and the TGI (786-0 renal) was 25 µM. The TGI (SW-620 colon) was 22.1 µM, the TGI (IGROV1 ovarian) was 41.6 µM and the TGI (M14 melanoma) was 24 µM.
In the case of `CSc1nc2c(ncn2C2OCC(O)C(O)C2O)c(=O)[nH]1` (stereo not drawn), the TGI (NCI/ADR-RES ovarian) is reported as greater than 100 µM, the TGI (SF-539 CNS) is reported as greater than 100 µM and the TGI (UACC-257 melanoma) is reported as greater than 100 µM. It also gave a TGI (A549 NSCLC) greater than 100 µM, a TGI (SF-295 CNS) greater than 100 µM and a TGI (SNB-75 CNS) greater than 100 µM. It also gave a TGI (SW-620 colon) greater than 100 µM and a TGI (IGROV1 ovarian) greater than 100 µM.
`CSCCC(NC(=O)C(CC(C)C)NC(=O)CNC(=O)OC(C)(C)C)C(=O)N(C)C` (stereo not drawn) (Boc-Gly-Leu-Met-NMe2; configuration not given here) showed a TGI (NCI/ADR-RES ovarian) greater than 100 µM, a TGI (SF-539 CNS) greater than 100 µM and a TGI (UACC-257 melanoma) greater than 100 µM. The TGI (A549 NSCLC) was greater than 100 µM, the TGI (SF-295 CNS) was greater than 100 µM and the TGI (786-0 renal) was greater than 100 µM. For the same molecule, the TGI (SW-620 colon) was greater than 100 µM, the TGI (IGROV1 ovarian) was greater than 100 µM and the TGI (M14 melanoma) was greater than 100 µM.
Work on `NC(CO)c1ccccc1` (stereo not drawn) yielded a TGI (SF-539 CNS) greater than 100 µM, a TGI (UACC-257 melanoma) greater than 100 µM and a TGI (A549 NSCLC) greater than 100 µM. It also gave a TGI (SF-295 CNS) greater than 100 µM, a TGI (SNB-75 CNS) greater than 100 µM and a TGI (SW-620 colon) greater than 100 µM. For the same molecule, the TGI (IGROV1 ovarian) was greater than 100 µM and the TGI (M14 melanoma) was greater than 100 µM.
